# In US6355799B1, “Substituted benzene compounds, process for their preparation, and herbicidal and defoliant compositions containing them” (ISK Americas Incorporated, priority 1997, dated 2002):
# Assays:
# Format in all cases: in vivo
# [1] = system: johnsongrass (Sorghum halepense, SORHA); test: Pre-emerge test, greenhouse herbicide activity screening; settings: pre-emerge, rated 14 days after application, 0 = no damage, 100 = complete death
# Procedure, shortened: (§1)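 Compounds in acetone were track-sprayed at 187 l/ha, 15–1000 g ai/ha, onto sandy loam pots. Pre-emerge seeds were sown one day before spraying, with surface watering afterwards. Post-emerge plants were at the 2–3 leaf stage and sprayed with 0.25% v/v non-ionic surfactant. Injury was rated 0–100 at 14 days.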
# [2] = system: green foxtail (Setaria viridis, SETVI); test: as above; settings: pre-emerge, rated 14 days after application, 0 = no damage, 100 = complete death
# Procedure, shortened: as §1
# [3] = system: large crabgrass (Digitaria sanguinalis, DIGSA); test: as above; settings: pre-emerge, rated 14 days after application, 0 = no damage, 100 = complete death
# Procedure, shortened: as §1
# [4] = system: lambsquarters (Chenopodium album, CHEAL); test: as above; settings: pre-emerge, rated 14 days after application, 0 = no damage, 100 = complete death
# Procedure, shortened: as §1
# [5] = system: ivyleaf morningglory (Ipomoea hederacea, IPOHE); test: as above; settings: pre-emerge, rated 14 days after application, 0 = no damage, 100 = complete death
# Procedure, shortened: as §1
# [6] = system: sicklepod (Cassia obtusifolia, CASOB); test: as above; settings: pre-emerge, rated 14 days after application, 0 = no damage, 100 = complete death
# Procedure, shortened: as §1
# [7] = system: velvetleaf (Abutilon theophrasti, ABUTH); test: as above; settings: pre-emerge, rated 14 days after application, 0 = no damage, 100 = complete death
# Procedure, shortened: as §1
# [8] = system: barnyardgrass (Echinochloa crus-galli, ECHCG); test: as above; settings: pre-emerge, rated 14 days after application, 0 = no damage, 100 = complete death
# Procedure, shortened: as §1
# [9] = system: johnsongrass (Sorghum halepense, SORHA); test: Post-emerge test, greenhouse herbicide activity screening; settings: phytotoxicity rating 0-100 (0 no damage, 100 complete death), 14 days after application
# Procedure, shortened: (§2)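 Applied at 15–1000 g ai/ha from acetone in 187 l/ha spray volume. Post-emergence applications included 0.25% v/v non-ionic surfactant and reached plants sown 8–21 days before. Pre-emergence applications were incorporated by surface watering. Efficacy or crop damage was rated on a 0–100 scale after 14 days.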
# [10] = system: green foxtail (Setaria viridis, SETVI); test: as above; settings: phytotoxicity rating 0-100 (0 no damage, 100 complete death), 14 days after application
# Procedure, shortened: as §2
# [11] = system: redroot pigweed (Amaranthus retroflexus, AMARE); test: as above; settings: phytotoxicity rating 0-100 (0 no damage, 100 complete death), 14 days after application
# Procedure, shortened: as §2
# [12] = system: large crabgrass (Digitaria sanguinalis, DIGSA); test: as above; settings: phytotoxicity rating 0-100 (0 no damage, 100 complete death), 14 days after application
# Procedure, shortened: as §2
# [13] = system: lambsquarters (Chenopodium album, CHEAL); test: as above; settings: phytotoxicity rating 0-100 (0 no damage, 100 complete death), 14 days after application
# Procedure, shortened: as §2
# [14] = system: ivyleaf morningglory (Ipomoea hederacea, IPOHE); test: as above; settings: phytotoxicity rating 0-100 (0 no damage, 100 complete death), 14 days after application
# Procedure, shortened: as §2
# [15] = system: sicklepod (Cassia obtusifolia, CASOB); test: as above; settings: phytotoxicity rating 0-100 (0 no damage, 100 complete death), 14 days after application
# Procedure, shortened: as §2
# [16] = system: velvetleaf (Abutilon theophrasti, ABUTH); test: as above; settings: phytotoxicity rating 0-100 (0 no damage, 100 complete death), 14 days after application
# Procedure, shortened: as §2
# [17] = system: barnyardgrass (Echinochloa crus-galli, ECHCG); test: as above; settings: phytotoxicity rating 0-100 (0 no damage, 100 complete death), 14 days after application
# Procedure, shortened: as §2
# [18] = system: redroot pigweed (Amaranthus retroflexus, AMARE); test: Pre-emerge test, greenhouse herbicide activity screening; settings: pre-emerge, rated 14 days after application, 0 = no damage, 100 = complete death
# Procedure, shortened: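 Sandy loam pots; pre-emerge: sown 1 d pre-spray, surface-watered after, then bottom-watered. Post-emerge: sown 8–21 d before, 2–3 leaf stage, + 0.25% v/v NIS, bottom-watered. Acetone, 187 l/ha track spray, 15–1000 g ai/ha. 0–100 injury score, day 14.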
# [19] = system: field corn (Zea mays L., var. Dekalb 535, CORN); test: Post-emerge test, crop safety; settings: phytotoxicity rating 0-100 (0 no damage, 100 complete death), 14 days after application
# Procedure, shortened: as §1
# [20] = system: upland rice (Oryza sp., var. Tebonnet, RICE); test: Post-emerge test, crop safety; settings: phytotoxicity rating 0-100 (0 no damage, 100 complete death), 14 days after application
# Procedure, shortened: as §1
# [21] = system: field corn (Zea mays L., var. Dekalb 535, CORN); test: Pre-emerge test, crop safety; settings: pre-emerge, rated 14 days after application, 0 = no damage, 100 = complete death
# Procedure, shortened: (§3)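 Plants grown in 10 cm pots of sandy loam mix received acetone-dissolved compounds through a moving flat-fan nozzle. Doses ranged from 15 to 1000 g ai/ha. Pre-emerge pots were seeded one day earlier, post-emerge pots 8–21 days earlier. Fourteen days on, each pot was graded 0–100 for damage.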
# [22] = system: upland rice (Oryza sp., var. Tebonnet, RICE); test: Pre-emerge test, crop safety; settings: pre-emerge, rated 14 days after application, 0 = no damage, 100 = complete death
# Procedure, shortened: as §3
smiles,measurement,setting,value
Cn1c(C(F)(F)F)cc(=O)n(-c2c(F)cc(Cl)c(OCC#N)c2N)c1=O [Compound 1-18],"Pre-emerge Herbicidal Activity SORHA (phytotoxicity rating, scale 0-100)",[1]; 63 g ai/ha,70
same,"Pre-emerge Herbicidal Activity SORHA (phytotoxicity rating, scale 0-100)",[1]; 250 g ai/ha,100
same,"Pre-emerge Herbicidal Activity SETVI (phytotoxicity rating, scale 0-100)",[2]; 63 g ai/ha,95
same,"Pre-emerge Herbicidal Activity SETVI (phytotoxicity rating, scale 0-100)",[2]; 250 g ai/ha,99
same,"Pre-emerge Herbicidal Activity DIGSA (phytotoxicity rating, scale 0-100)",[3]; 63 g ai/ha,70
same,"Pre-emerge Herbicidal Activity DIGSA (phytotoxicity rating, scale 0-100)",[3]; 250 g ai/ha,90
same,"Pre-emerge Herbicidal Activity CHEAL (phytotoxicity rating, scale 0-100)",[4]; 63 g ai/ha,100
same,"Pre-emerge Herbicidal Activity CHEAL (phytotoxicity rating, scale 0-100)",[4]; 250 g ai/ha,100
same,"Pre-emerge Herbicidal Activity IPOHE (phytotoxicity rating, scale 0-100)",[5]; 63 g ai/ha,100
same,"Pre-emerge Herbicidal Activity IPOHE (phytotoxicity rating, scale 0-100)",[5]; 250 g ai/ha,100
same,"Pre-emerge Herbicidal Activity CASOB (phytotoxicity rating, scale 0-100)",[6]; 63 g ai/ha,70
same,"Pre-emerge Herbicidal Activity CASOB (phytotoxicity rating, scale 0-100)",[6]; 250 g ai/ha,100
same,"Pre-emerge Herbicidal Activity ABUTH (phytotoxicity rating, scale 0-100)",[7]; 63 g ai/ha,100
same,"Pre-emerge Herbicidal Activity ABUTH (phytotoxicity rating, scale 0-100)",[7]; 250 g ai/ha,100
same,"Pre-emerge Herbicidal Activity ECHCG (phytotoxicity rating, scale 0-100)",[8]; 63 g ai/ha,0
same,"Pre-emerge Herbicidal Activity ECHCG (phytotoxicity rating, scale 0-100)",[8]; 250 g ai/ha,80
same,Post-emerge Herbicidal Activity SORHA,[9]; 63 g ai/ha,50
same,Post-emerge Herbicidal Activity SORHA,[9]; 250 g ai/ha,50
same,Post-emerge Herbicidal Activity SETVI,[10]; 63 g ai/ha,70
same,Post-emerge Herbicidal Activity SETVI,[10]; 250 g ai/ha,70
same,Post-emerge Herbicidal Activity AMARE,[11]; 63 g ai/ha,70
same,Post-emerge Herbicidal Activity AMARE,[11]; 250 g ai/ha,100
same,Post-emerge Herbicidal Activity DIGSA,[12]; 63 g ai/ha,50
same,Post-emerge Herbicidal Activity DIGSA,[12]; 250 g ai/ha,50
same,Post-emerge Herbicidal Activity CHEAL,[13]; 63 g ai/ha,70
same,Post-emerge Herbicidal Activity CHEAL,[13]; 250 g ai/ha,100
same,Post-emerge Herbicidal Activity IPOHE,[14]; 63 g ai/ha,80
same,Post-emerge Herbicidal Activity IPOHE,[14]; 250 g ai/ha,100
same,Post-emerge Herbicidal Activity CASOB,[15]; 63 g ai/ha,30
same,Post-emerge Herbicidal Activity CASOB,[15]; 250 g ai/ha,95
same,Post-emerge Herbicidal Activity ABUTH,[16]; 63 g ai/ha,100
same,Post-emerge Herbicidal Activity ABUTH,[16]; 250 g ai/ha,100
same,Post-emerge Herbicidal Activity ECHCG,[17]; 63 g ai/ha,0
same,Post-emerge Herbicidal Activity ECHCG,[17]; 250 g ai/ha,0
same,"Pre-emerge Herbicidal Activity AMARE (phytotoxicity rating, scale 0-100)",[18]; 63 g ai/ha,100
same,"Pre-emerge Herbicidal Activity AMARE (phytotoxicity rating, scale 0-100)",[18]; 250 g ai/ha,100
same,Post-emerge Herbicidal Activity CORN (crop damage),[19]; 63 g ai/ha,0
same,Post-emerge Herbicidal Activity CORN (crop damage),[19]; 250 g ai/ha,0
same,Post-emerge Herbicidal Activity RICE (crop damage),[20]; 63 g ai/ha,0
same,Post-emerge Herbicidal Activity RICE (crop damage),[20]; 250 g ai/ha,0
same,"Pre-emerge crop damage CORN (phytotoxicity rating, scale 0-100)",[21]; 63 g ai/ha,40
same,"Pre-emerge crop damage CORN (phytotoxicity rating, scale 0-100)",[21]; 250 g ai/ha,90
same,"Pre-emerge crop damage RICE (phytotoxicity rating, scale 0-100)",[22]; 63 g ai/ha,30
same,"Pre-emerge crop damage RICE (phytotoxicity rating, scale 0-100)",[22]; 250 g ai/ha,70
